Test results as given in patent US20220105183A1, “MICRO-NANO STRUCTURE FORMED BY SELF-ASSEMBLING ORGANIC SMALL MOLECULE COMPOUND AND USE THEREOF” (Qingdao University of Science and Technology, priority 2018, published 2022).

What was measured:
Format in all cases: physicochemical
[1] = Photothermal effect in vitro under 808 nm laser irradiation; conditions: for light-to-heat conversion efficiency: 20 μM in water; for light-to-heat conversion efficiency / photothermal effect: 808 nm (2.6 W/cm-2) laser 10 minutes; for temperature rise: 40 μM in water, 808 nm (2.6 W/cm-2) laser, within 10 minutes; for photothermal effect: in water
Method: A total of 4 groups of samples, 3 mL was taken and added to a cuvette respectively, and the lid was sealed.
The sample No. 2 was 10 μM II-1, and the specific preparation method is 3 mL deionized water plus 15 μL II-1 stock solution (2 mM, dissolved in DMSO);
The sample No. 3 was 20 μM II-1, and the specific preparation method was that 3 mL deionized water was added 30 μL II-1 stock solution (2 mM, dissolved in DMSO);
The sample No. 4 was 40 μM II-1, and the specific preparation method was that 3 mL deionized water was added 60 μL II-1 stock solution (2 mM, dissolved in DMSO).
Each sample was irradiated with an 808 nm laser for 5 minutes, and the temperature data was recorded every 5 seconds with a thermal imager, and the temperature corresponding to the time was plotted in origin, as shown in the left figure of FIG. 8. […] The temperature of sample No. 2 increased from room temperature 30° C. to 54° C., and the temperature was raised by 24° C. The temperature of sample No. 3 increased from room temperature 30° C. to 62° C., and the temperature was raised by 32° C. The temperature of sample No. 4 increased from room temperature 30° C. to 77° C., and the temperature was raised by 47° C.
Using a method similar to Example 8, 10 μM, 20 μM and 40 μM samples of II-16, II-17 and II-18 were prepared, respectively, they were irradiated under an 808 nm (2.6 W/cm-2) laser for 10 minutes. 40 μM II-16 to 18 samples can rise by 40° C., 36° C. and 18° C. respectively within 10 minutes under laser irradiation.
Using a method similar to that in Example 8, three samples of 20 μM of 1-16, II-17 and II-18 in water were irradiated with 808 nm (2.6 W/cm-2) laser for 10 minutes, and the light-to-heat conversion efficiency calculation result thereof were shown in FIG. 10. […] And II-18 not only has poor light-heat effect, but also has low light-heat conversion efficiency, only 12.9%.

[2] = TEM, cryo-TEM and AFM of the self-assembled micro-nano structure; conditions: micro-nano structure in aqueous solution, AFM and TEM
Method: (§1) Taking the self-assembled micro-nano structure of Compound II-1 as an example, II-1 was dissolved in DMSO (also can be an organic solvent such as ethanol) to prepare a 2 mM storage solution, and a small amount of storage solution was added to deionized water to prepare 20 μM working solution. Took 10 μL and dropped it on copper mesh, observed and analyzed under transmission electron microscope (TEM), cryo-transmission electron microscope. Took 10 μL and dropped it on mica plate, observed and analyzed under atomic force microscope (AFM). In FIGS. 5, A, B, C and D were TEM photographs, cryo-transmission electron microscope photographs, AFM photographs, and AFM analysis data, respectively. According to the photographs and data, II-1 was self-assembled into nanosheets with a diameter of 40-70 nm and a thickness of 3.7-3.9 nm. […]

[3] = DLS particle size / self-assembly of the compounds in aqueous solution; conditions: 20 μM working solution in deionized water; for DLS particle size peak (nm) / DLS particle size range (nm): micro-nano structure
Method: The term “particle size” refers to the size of particles, also known as “granularity” or “diameter”. When a certain physical characteristic or physical behavior of the measured particle is closest to a homogeneous sphere (or combination) of a certain diameter, the diameter (or combination) of the sphere is taken as the equivalent particle size of the measured particle. The particle size parameter of the micro-nano structure of the present invention is measured by the principle of dynamic light scattering (DLS), specifically measured by a laser particle size analyzer.
as §1
Among them, the particle size test results of II-12 to II-15 in aqueous solution are shown in FIG. 6, and the results of dynamic light scattering DLS of II-16 to 1-18 are shown in FIG. 7).

[4] = Photothermal stability, repeated 808 nm irradiation and cooling; conditions: for reduction of absorbance after 5 times of irradiation: ultraviolet spectra before and after
Method: We selected sample No. 3 to test the photothermal stability experiment. As shown in the right figure of FIG. 8, sample No. 3 was irradiated with 808 nm laser for 9 minutes and then the temperature increased from room temperature 30° C. to 62° C., and then allowed to naturally cool down to room temperature, and irradiated with 808 nm laser again for 9 minutes, then naturally cooled down, and repeated for 5 times. […] After 9 minutes of irradiation, the temperature was raised by […], and then returned to room temperature.

[5] = Assembly stability in different media
Method: Since II-16 has excellent photothermal properties, its assembly stability in serum-containing medium and in PBS at different temperatures was tested, as shown in FIG. 13.

[6] = 808 nm laser at 2.6 W/cm-2, irradiated and cooled 5 times

## CCn1c(=CC=C2CCCC(C=CC3=C(C#N)C(=C(C#N)C#N)OC3(C)C)=C2Cl)c2cccc3cccc1c32 [II-16]
[1]
  light-to-heat conversion efficiency: 56.9%
  temperature rise: 40 °C
  photothermal effect: excellent photothermal effect
[2]
  Morphology: nano-sheet
[3]
  DLS particle size peak (nm): 199 nm
  DLS particle size range (nm): 163-293 nm
[4]; [6]
  temperature in repeated irradiations: each time the temperature can rise to the same temperature as the first time
  reduction of absorbance after 5 times of irradiation: 2%
[5]; at 37° C.
  absorbance over time: the absorbance will decrease with time
[5]; serum-containing medium and PBS at different temperatures
  aggregation mode (H aggregation): will not change due to changes in external conditions

## CCN1C(=CC=C2CCCC(C=CC3=C(C#N)C(=C(C#N)C#N)OC3(C)C)=C2Cl)Sc2ccccc21 [II-17]
[1]
  light-to-heat conversion efficiency: 25%
  temperature rise: 36 °C
  photothermal effect: excellent photothermal effect
[2]
  Morphology: nano-sheet
[3]
  DLS particle size peak (nm): 10 nm
  DLS particle size range (nm): 10-86 nm
[4]; [6]
  reduction of absorbance after 5 times of irradiation: 75%

## C=CCOc1ccc(C2CC(=CC=C3N(CC)c4ccccc4C3(C)C)C(Cl)=C(C=CC3=C(C#N)C(=C(C#N)C#N)OC3(C)C)C2)cc1 (centres unmarked) [II-12]
[2]
  Morphology: nano-sheet
[3]
  DLS particle size peak (nm): 78 nm
  DLS particle size range (nm): 20-160 nm

## CCN(CC)c1ccc2c(c1)OC1=C(C=C3CCCC(C=CC4=C(C#N)C(=C(C#N)C#N)OC4(C)C)=C3Cl)CCCC1=C2 [II-18]
[1]
  light-to-heat conversion efficiency: 12.9%
  temperature rise: 18 °C
  photothermal effect: poor photothermal effect
[2]
  Morphology: nano-sheet
[3]
  DLS particle size peak (nm): 42 nm
  DLS particle size range (nm): 42-139 nm

## C#CCOc1ccc(C2CC(=CC=C3N(CC)c4ccccc4C3(C)C)C(Cl)=C(C=CC3=C(C#N)C(=C(C#N)C#N)OC3(C)C)C2)cc1 (centres unmarked) [II-13]
[2]
  Morphology: nano-sheet
[3]
  DLS particle size peak (nm): 74 nm
  DLS particle size range (nm): 40-110 nm

## C#CCOc1ccc(C2CC(=CC=C3N(CC)c4ccccc4C3(C)C)C(NCCn3ccnc3[N+](=O)[O-])=C(C=CC3=C(C#N)C(=C(C#N)C#N)OC3(C)C)C2)cc1 (centres unmarked) [II-15]
[2]
  Morphology: nano-sheet
[3]
  DLS particle size peak (nm): 60 nm
  DLS particle size range (nm): 40-110 nm

## CCN1C(=CC=C2CCCC(C=CC3=C(C#N)C(=C(C#N)C#N)OC3(C)C)=C2Cl)C(C)(C)c2ccc3ccccc3c21 [II-14]
[2]
  Morphology: nano-sheet
[3]
  DLS particle size peak (nm): 78 nm
  DLS particle size range (nm): 27-134 nm

## CC1(C)C(/C=C/C=C/C=C/C=C2\N(CCCCS(=O)(=O)[O-])c3ccc4ccccc4c3C2(C)C)=[N+](CCCCS(=O)(=O)[O-])c2ccc3ccccc3c21.[Na+] [ICG, reference compound]
[3]
  particle size by DLS: could not be detected
[4]; 808 nm laser, after 9 minutes of irradiation
  temperature raised by, first irradiation: 15 °C
[4]; after return to room temperature, second irradiation
  temperature on laser irradiation again: the temperature cannot be increased
